Measurements taken from ChEMBL document CHEMBL1201862, “PubChem BioAssay data set” (2004).
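Growth conditions: 96-well plates. Treatment: test compound, 48 hours, 5 concentrations. Analysis: linear interpolation between bracketing concentrations; unreached endpoints set to highest concentration. Here, GI50 denotes the concentration required for 50% inhibition of growth.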 Active and inactive are the calls of the source. No stated cut-off is given here; in the data, active = GI50 up to about 1.1 µM and inactive = higher.

What was measured:
Experiment in all cases: NCI-60 cell line screen, 48 h
[1] = system: BT-549
[2] = system: CAKI-1
[3] = system: HOP-92
[4] = system: MDA-MB-231
[5] = system: RXF 393
[6] = system: MOLT-4
[7] = system: OVCAR-8
[8] = system: HT-29
[9] = system: UO-31
[10] = system: SF-268
[11] = system: 786-0
[12] = system: MDA-MB-435
[13] = system: M14
[14] = system: TK-10
[15] = system: SN12C
[16] = system: OVCAR-5
[17] = system: SNB-19
[18] = system: COLO 205
[19] = system: SR
[20] = system: ACHN
[21] = system: SNB-75
[22] = system: NCI-H23
[23] = system: HCT-116
[24] = system: EKVX
[25] = system: RPMI-8226
[26] = system: HL-60
[27] = system: UACC-62
[28] = system: IGROV-1
[29] = system: A498
[30] = system: Malme-3M
[31] = system: KM12
[32] = system: NCI-H226
[33] = system: MDA-N
[34] = system: SF-539
[35] = system: HCC 2998
[36] = system: MCF7
[37] = system: SK-OV-3
[38] = system: HOP-62
[39] = system: T47D
[40] = system: DU-145
[41] = system: Hs-578T
[42] = system: HCT-15
[43] = system: OVCAR-4
[44] = system: OVCAR-3
[45] = system: SK-MEL-2
[46] = system: CCRF-CEM
[47] = system: UACC-257
[48] = system: PC-3
[49] = system: NCI-H522
[50] = system: NCI/ADR-RES
[51] = system: LOX IMVI
[52] = system: K562
[53] = system: SW-620
[54] = system: U-251
[55] = system: SF-295
[56] = system: SK-MEL-5
[57] = system: A549
[58] = system: NCI-H460
[59] = system: SK-MEL-28

With `O=C1NCCN1/N=C/c1c(Cl)n(-c2ccccc2)c2ccccc12` the GI50 [1] was 15.4 µM (inactive), the GI50 [2] was 17.3 µM (inactive) and the GI50 [3] was 23.6 µM (inactive). For the same compound, the GI50 [4] was 13.6 µM (inactive), the GI50 [5] was > 10 µM (inactive) and the GI50 [6] was 36.9 µM (inactive). For the same compound, the GI50 [7] was 22.3 µM (inactive), the GI50 [8] was 17.4 µM (inactive) and the GI50 [9] was 19.1 µM (inactive). For the same compound, the GI50 [10] was 20.1 µM (inactive), the GI50 [11] was 26.1 µM (inactive) and the GI50 [12] was 12.4 µM (inactive). The GI50 [13] was 17.5 µM (inactive), the GI50 [14] was 14.8 µM (inactive) and the GI50 [15] was 18.7 µM (inactive). The GI50 [16] was 44.1 µM (inactive), the GI50 [17] was 23.1 µM (inactive) and the GI50 [18] was 14.3 µM (inactive). The GI50 [19] was 28 µM (inactive), the GI50 [20] was 23.9 µM (inactive) and the GI50 [21] was 21.1 µM (inactive). For the same compound, the GI50 [22] was 18.5 µM (inactive), the GI50 [23] was 19.5 µM (inactive) and the GI50 [24] was 25.5 µM (inactive). For the same compound, the GI50 [25] was 22.4 µM (inactive), the GI50 [26] was 27.4 µM (inactive) and the GI50 [27] was 16 µM (inactive). For the same compound, the GI50 [28] was 17.2 µM (inactive), the GI50 [29] was 17.5 µM (inactive) and the GI50 [30] was 16.6 µM (inactive). The GI50 [31] was 15.7 µM (inactive), the GI50 [32] was 20.4 µM (inactive) and the GI50 [33] was 9.25 µM (inactive). The GI50 [34] was 10.4 µM (inactive), the GI50 [35] was 17.8 µM (inactive) and the GI50 [36] was 22.1 µM (inactive). The GI50 [37] was 46.2 µM (inactive), the GI50 [38] was 94.4 µM (inactive) and the GI50 [39] was 15.2 µM (inactive). The GI50 [40] was 14.6 µM (inactive), the GI50 [41] was 13.4 µM (inactive) and the GI50 [42] was 17.6 µM. The GI50 [43] was 48.1 µM (inactive), the GI50 [44] was 66.4 µM (inactive) and the GI50 [45] was 25 µM (inactive). The GI50 [46] was 29 µM (inactive), the GI50 [47] was 22.4 µM (inactive) and the GI50 [48] was 29 µM (inactive). For the same compound, the GI50 [49] was 16.1 µM (inactive), the GI50 [50] was 19.5 µM (inactive) and the GI50 [51] was 13.5 µM (inactive). For the same compound, the GI50 [52] was 24.5 µM (inactive), the GI50 [53] was 21.1 µM (inactive) and the GI50 [54] was 21.7 µM (inactive). For the same compound, the GI50 [55] was 29.4 µM (inactive), the GI50 [56] was 15.5 µM (inactive) and the GI50 [57] was 23.9 µM (inactive).

With `CC(=O)C1(c2ccccc2)CCN(Cn2sc3nc(C)cc(C)c3c2=O)CC1` the GI50 [1] was 38.8 µM (inactive), the GI50 [2] was 35.9 µM (inactive) and the GI50 [3] was 59.4 µM (inactive). The GI50 [4] was 33 µM (inactive), the GI50 [5] was 20.8 µM (inactive) and the GI50 [6] was 27.7 µM (inactive). For the same compound, the GI50 [7] was 27.4 µM (inactive), the GI50 [8] was 19.1 µM (inactive) and the GI50 [9] was 16.5 µM (inactive). The GI50 [10] was 34.8 µM (inactive), the GI50 [11] was 16.9 µM (inactive) and the GI50 [58] was 17.6 µM (inactive). The GI50 [12] was 23.1 µM (inactive), the GI50 [13] was 25.8 µM (inactive) and the GI50 [14] was 20.1 µM (inactive). The GI50 [15] was 21.4 µM (inactive), the GI50 [16] was 19.5 µM (inactive) and the GI50 [17] was > 100 µM (inactive). The GI50 [18] was 17.6 µM (inactive), the GI50 [19] was 32.1 µM (inactive) and the GI50 [20] was 17.8 µM (inactive). For the same compound, the GI50 [21] was 28.3 µM (inactive), the GI50 [22] was 19.1 µM (inactive) and the GI50 [23] was 23.1 µM (inactive). For the same compound, the GI50 [24] was 23.3 µM (inactive), the GI50 [25] was 56.9 µM (inactive) and the GI50 [26] was 18.7 µM (inactive). The GI50 [27] was 28.9 µM (inactive), the GI50 [28] was > 100 µM (inactive) and the GI50 [29] was 78.2 µM (inactive). For the same compound, the GI50 [30] was 20.3 µM (inactive), the GI50 [31] was > 100 µM (inactive) and the GI50 [32] was 97.5 µM (inactive). The GI50 [33] was 19.8 µM (inactive), the GI50 [34] was 22.5 µM (inactive) and the GI50 [35] was 25 µM (inactive). The GI50 [36] was 40 µM (inactive), the GI50 [37] was 76.4 µM (inactive) and the GI50 [38] was 34.8 µM (inactive). The GI50 [39] was 55.6 µM (inactive), the GI50 [40] was 31.4 µM (inactive) and the GI50 [41] was 30.4 µM (inactive). For the same compound, the GI50 [42] was 26.5 µM, the GI50 [43] was 21.9 µM (inactive) and the GI50 [44] was 37.5 µM (inactive). For the same compound, the GI50 [59] was 31.6 µM (inactive), the GI50 [45] was 44 µM (inactive) and the GI50 [46] was 10.5 µM (inactive). The GI50 [48] was 37.6 µM (inactive), the GI50 [49] was 12.4 µM (inactive) and the GI50 [50] was 32 µM (inactive). The GI50 [51] was 23.8 µM (inactive), the GI50 [52] was 26.7 µM (inactive) and the GI50 [53] was 24.4 µM (inactive). For the same compound, the GI50 [54] was 42.3 µM (inactive), the GI50 [55] was > 100 µM (inactive) and the GI50 [56] was 30.1 µM (inactive). For the same compound, the GI50 [57] was 64.7 µM (inactive).

`C=C(C(=O)O[C@H]1C/C(C)=C/CC/C(CO)=C/[C@H]2C(=O)OC(=C)[C@H]12)C(O)CO` (some centres undefined) was tested, and the GI50 [1] was 14.4 µM (inactive), the GI50 [2] was 4.46 µM (inactive) and the GI50 [3] was 8.75 µM (inactive). For the same compound, the GI50 [4] was 17.9 µM (inactive), the GI50 [5] was 8.28 µM (inactive) and the GI50 [6] was 5.37 µM (inactive). For the same compound, the GI50 [7] was 15.2 µM (inactive), the GI50 [8] was 17.9 µM (inactive) and the GI50 [9] was 8.18 µM (inactive). For the same compound, the GI50 [10] was 18.7 µM (inactive), the GI50 [11] was 5.98 µM (inactive) and the GI50 [58] was 17.2 µM (inactive). The GI50 [12] was 9.59 µM (inactive), the GI50 [13] was 12.2 µM (inactive) and the GI50 [14] was 7.93 µM (inactive). The GI50 [15] was 15.3 µM (inactive), the GI50 [16] was 17.3 µM (inactive) and the GI50 [17] was 21.4 µM (inactive). For the same compound, the GI50 [18] was 3.37 µM (inactive), the GI50 [19] was 2.5 µM (inactive) and the GI50 [20] was 12.3 µM (inactive). For the same compound, the GI50 [21] was 18.7 µM (inactive), the GI50 [22] was 16.3 µM (inactive) and the GI50 [23] was 7.18 µM (inactive). For the same compound, the GI50 [24] was 17.3 µM (inactive), the GI50 [25] was 2 µM (inactive) and the GI50 [26] was 2.49 µM (inactive). For the same compound, the GI50 [27] was 17.5 µM (inactive), the GI50 [28] was 19.5 µM (inactive) and the GI50 [29] was 18.5 µM (inactive). The GI50 [30] was 5.16 µM (inactive), the GI50 [31] was 20.4 µM (inactive) and the GI50 [32] was 17.9 µM (inactive). The GI50 [33] was 11.7 µM (inactive), the GI50 [34] was 4.71 µM (inactive) and the GI50 [35] was 16.4 µM (inactive). For the same compound, the GI50 [36] was 11.5 µM (inactive), the GI50 [37] was 18.5 µM (inactive) and the GI50 [38] was 24.5 µM (inactive). For the same compound, the GI50 [39] was 3.75 µM (inactive), the GI50 [40] was 17.3 µM (inactive) and the GI50 [41] was 23.5 µM (inactive). The GI50 [42] was 8.05 µM, the GI50 [43] was 20.5 µM (inactive) and the GI50 [44] was 6.76 µM (inactive). The GI50 [59] was 14.5 µM (inactive), the GI50 [45] was 15.6 µM (inactive) and the GI50 [46] was 1.67 µM (inactive). For the same compound, the GI50 [47] was 11.5 µM (inactive), the GI50 [48] was 9.77 µM (inactive) and the GI50 [49] was 1.68 µM (inactive). For the same compound, the GI50 [50] was 19.8 µM (inactive), the GI50 [51] was 16.3 µM (inactive) and the GI50 [52] was 4.08 µM (inactive). The GI50 [53] was 3.71 µM (inactive), the GI50 [54] was 12.1 µM (inactive) and the GI50 [55] was 26.1 µM (inactive). For the same compound, the GI50 [56] was 15.5 µM (inactive) and the GI50 [57] was 22.9 µM (inactive).
